Read-outs that look alike come from different tables or passages of the source.
Tests used:
Hey A8 cells = assay: Cell proliferation, MTT assay; type: cell-based
Protocol: (§1) Cell proliferation was assessed by MTT assay.
(§2) Cell viability was measured by MTT assay and the half maximal inhibitory concentration (IC50) was calculated using GraphPad Prism. Triplicates were performed for each sample and medium alone was used as a blank.
(§3) The anti-proliferative effects of PAK1 degradation and inhibition were evaluated.

MCF7 cells = assay: Cell proliferation, MTT assay; type: cell-based; settings: Homo sapiens, MCF7, MCF7 cells, read-out: EC50, anti-proliferative
Protocol: as §1, §2, §3

OMM1 cells = assay: Cell proliferation, MTT assay; type: cell-based; settings: OMM1 cells (PAK2-dependent)
Protocol: as §1, §2, §3

[1] = target: RSK4(Kin.Dom.2-C-terminal) (Homo sapiens, UniProt Q9UK32); assay: KINOMEscan; settings: read-out: Percent Control
Protocol: (§4) The kinase engagement assay (KINOMEscan®) was performed by DiscoverX assessing binding abilities toward a set of kinases.

PRKX = PRKX (Homo sapiens, UniProt P51817); assay: KINOMEscan; settings: read-out: Percent Control
Protocol: as §4

[2] = target: RSK3(Kin.Dom.2-C-terminal) (Homo sapiens, UniProt Q15349); assay: KINOMEscan; settings: read-out: Percent Control
Protocol: as §4

DDR1 = DDR1 (Homo sapiens, UniProt Q08345); assay: KINOMEscan; settings: read-out: Percent Control
Protocol: as §4

[3] = target: RPS6KA4(Kin.Dom.1-N-terminal) (Homo sapiens, UniProt O75676); assay: KINOMEscan; settings: read-out: Percent Control
Protocol: as §4

ADCK4 = ADCK4 (Homo sapiens, UniProt Q96D53); assay: KINOMEscan; settings: read-out: Percent Control
Protocol: as §4

FAK = FAK (Homo sapiens, UniProt Q05397); assay: KINOMEscan; settings: read-out: Percent Control
Protocol: as §4

NEK5 = NEK5 (Homo sapiens, UniProt Q6P3R8); assay: KINOMEscan; settings: read-out: Percent Control
Protocol: as §4

RIPK1 = RIPK1 (Homo sapiens, UniProt Q13546); assay: KINOMEscan; settings: read-out: Percent Control
Protocol: as §4

PAK4 = PAK4 (Homo sapiens, UniProt O96013); assay: KINOMEscan; settings: read-out: Percent Control
Protocol: as §4

GRK2 = GRK2 (Homo sapiens, UniProt P25098); assay: KINOMEscan; settings: read-out: Percent Control
Protocol: as §4

PFTAIRE2 = PFTAIRE2 (Homo sapiens, UniProt Q96Q40); assay: KINOMEscan; settings: read-out: Percent Control
Protocol: as §4

LRRK2 = LRRK2 (Homo sapiens, UniProt Q5S007); assay: KINOMEscan; settings: read-out: Percent Control
Protocol: as §4

MST2 = MST2 (Homo sapiens, UniProt Q13188); assay: KINOMEscan; settings: read-out: Percent Control
Protocol: as §4

PRKR = PRKR (Homo sapiens, UniProt P19525); assay: KINOMEscan; settings: read-out: Percent Control
Protocol: as §4

EPHA8 = EPHA8 (Homo sapiens, UniProt P29322); assay: KINOMEscan; settings: read-out: Percent Control
Protocol: as §4

JNK2 = JNK2 (Homo sapiens, UniProt P45984); assay: KINOMEscan; settings: read-out: Percent Control
Protocol: as §4

[4] = target: ABL1(F317I)-nonphosphorylated (Homo sapiens, UniProt P00519, F317I); assay: KINOMEscan; settings: read-out: Percent Control
Protocol: as §4

KIT(A829P) = KIT(A829P) (Homo sapiens, UniProt P10721, A829P); assay: KINOMEscan; settings: read-out: Percent Control
Protocol: as §4

MYLK2 = MYLK2 (Homo sapiens, UniProt Q9H1R3); assay: KINOMEscan; settings: read-out: Percent Control
Protocol: as §4

SRPK3 = SRPK3 (Homo sapiens, UniProt Q9UPE1); assay: KINOMEscan; settings: read-out: Percent Control
Protocol: as §4

YSK4 = YSK4 (Homo sapiens, UniProt Q56UN5); assay: KINOMEscan; settings: read-out: Percent Control
Protocol: as §4

LIMK1 = LIMK1 (Homo sapiens, UniProt P53667); assay: KINOMEscan; settings: read-out: Percent Control
Protocol: as §4

PIK3C2G = PIK3C2G (Homo sapiens, UniProt O75747); assay: KINOMEscan; settings: read-out: Percent Control
Protocol: as §4

CSNK2A1 = CSNK2A1 (Homo sapiens, UniProt P68400); assay: KINOMEscan; settings: read-out: Percent Control
Protocol: as §4

LRRK2(G2019S) = LRRK2(G2019S) (Homo sapiens, UniProt Q5S007, G2019S); assay: KINOMEscan; settings: read-out: Percent Control
Protocol: as §4

[5] = target: ABL1(M351T)-phosphorylated (Homo sapiens, UniProt P00519, M351T); assay: KINOMEscan; settings: read-out: Percent Control
Protocol: as §4

DYRK1A = DYRK1A (Homo sapiens, UniProt Q13627); assay: KINOMEscan; settings: read-out: Percent Control
Protocol: as §4

KIT-autoinhibited = KIT-autoinhibited (Homo sapiens, UniProt P10721); assay: KINOMEscan; settings: read-out: Percent Control
Protocol: as §4

MAP3K3 = MAP3K3 (Homo sapiens, UniProt Q99759); assay: KINOMEscan; settings: read-out: Percent Control
Protocol: as §4

PIK3CA(Q546K) = PIK3CA(Q546K) (Homo sapiens, UniProt P42336, Q546K); assay: KINOMEscan; settings: read-out: Percent Control
Protocol: as §4

YANK1 = YANK1 (Homo sapiens, UniProt Q8WU08); assay: KINOMEscan; settings: read-out: Percent Control
YANK1, sequence (Q8WU08 whole entry): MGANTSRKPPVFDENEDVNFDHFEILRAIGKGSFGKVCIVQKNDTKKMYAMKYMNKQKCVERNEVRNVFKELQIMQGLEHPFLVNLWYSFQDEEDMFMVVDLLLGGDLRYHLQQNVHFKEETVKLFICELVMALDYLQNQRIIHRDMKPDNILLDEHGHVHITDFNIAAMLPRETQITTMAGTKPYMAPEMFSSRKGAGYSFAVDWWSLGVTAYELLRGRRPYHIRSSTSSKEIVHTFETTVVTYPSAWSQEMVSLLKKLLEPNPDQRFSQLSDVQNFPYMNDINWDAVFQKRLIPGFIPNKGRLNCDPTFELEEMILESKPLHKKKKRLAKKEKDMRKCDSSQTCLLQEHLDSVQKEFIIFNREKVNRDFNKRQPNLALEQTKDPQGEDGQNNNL
Protocol: as §4

RIPK1, sequence (Q13546 whole entry): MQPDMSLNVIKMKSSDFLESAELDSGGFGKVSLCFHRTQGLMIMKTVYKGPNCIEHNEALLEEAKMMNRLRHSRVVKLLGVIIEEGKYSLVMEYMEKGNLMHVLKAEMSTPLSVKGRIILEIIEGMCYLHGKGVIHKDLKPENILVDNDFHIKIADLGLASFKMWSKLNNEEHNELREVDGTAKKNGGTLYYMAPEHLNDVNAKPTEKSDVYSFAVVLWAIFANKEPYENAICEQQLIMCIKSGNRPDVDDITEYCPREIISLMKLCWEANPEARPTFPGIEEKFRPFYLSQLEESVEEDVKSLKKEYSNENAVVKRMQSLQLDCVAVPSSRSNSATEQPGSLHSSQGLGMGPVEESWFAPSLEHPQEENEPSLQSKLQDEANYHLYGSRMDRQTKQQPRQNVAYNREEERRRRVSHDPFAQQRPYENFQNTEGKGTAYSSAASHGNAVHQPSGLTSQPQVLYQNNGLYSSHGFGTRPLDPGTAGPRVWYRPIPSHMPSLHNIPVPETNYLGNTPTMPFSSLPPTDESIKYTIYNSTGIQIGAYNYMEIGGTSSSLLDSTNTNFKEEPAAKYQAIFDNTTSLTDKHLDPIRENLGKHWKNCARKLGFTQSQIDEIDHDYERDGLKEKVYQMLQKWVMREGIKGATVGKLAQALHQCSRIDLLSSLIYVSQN
JNK2, sequence (P45984 whole entry): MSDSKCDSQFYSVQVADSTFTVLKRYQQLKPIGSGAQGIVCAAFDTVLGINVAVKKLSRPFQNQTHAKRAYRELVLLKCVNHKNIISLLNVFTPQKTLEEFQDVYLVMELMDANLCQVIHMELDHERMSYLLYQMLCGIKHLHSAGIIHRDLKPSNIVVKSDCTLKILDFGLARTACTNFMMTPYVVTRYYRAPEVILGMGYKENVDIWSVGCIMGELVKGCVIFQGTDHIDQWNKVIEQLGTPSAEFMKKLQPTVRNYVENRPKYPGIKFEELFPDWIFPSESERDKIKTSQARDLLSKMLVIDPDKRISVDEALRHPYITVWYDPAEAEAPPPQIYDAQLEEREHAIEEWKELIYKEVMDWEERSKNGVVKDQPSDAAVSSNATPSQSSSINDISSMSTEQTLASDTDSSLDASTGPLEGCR
KIT(A829P), sequence (P10721 26-976 A829P): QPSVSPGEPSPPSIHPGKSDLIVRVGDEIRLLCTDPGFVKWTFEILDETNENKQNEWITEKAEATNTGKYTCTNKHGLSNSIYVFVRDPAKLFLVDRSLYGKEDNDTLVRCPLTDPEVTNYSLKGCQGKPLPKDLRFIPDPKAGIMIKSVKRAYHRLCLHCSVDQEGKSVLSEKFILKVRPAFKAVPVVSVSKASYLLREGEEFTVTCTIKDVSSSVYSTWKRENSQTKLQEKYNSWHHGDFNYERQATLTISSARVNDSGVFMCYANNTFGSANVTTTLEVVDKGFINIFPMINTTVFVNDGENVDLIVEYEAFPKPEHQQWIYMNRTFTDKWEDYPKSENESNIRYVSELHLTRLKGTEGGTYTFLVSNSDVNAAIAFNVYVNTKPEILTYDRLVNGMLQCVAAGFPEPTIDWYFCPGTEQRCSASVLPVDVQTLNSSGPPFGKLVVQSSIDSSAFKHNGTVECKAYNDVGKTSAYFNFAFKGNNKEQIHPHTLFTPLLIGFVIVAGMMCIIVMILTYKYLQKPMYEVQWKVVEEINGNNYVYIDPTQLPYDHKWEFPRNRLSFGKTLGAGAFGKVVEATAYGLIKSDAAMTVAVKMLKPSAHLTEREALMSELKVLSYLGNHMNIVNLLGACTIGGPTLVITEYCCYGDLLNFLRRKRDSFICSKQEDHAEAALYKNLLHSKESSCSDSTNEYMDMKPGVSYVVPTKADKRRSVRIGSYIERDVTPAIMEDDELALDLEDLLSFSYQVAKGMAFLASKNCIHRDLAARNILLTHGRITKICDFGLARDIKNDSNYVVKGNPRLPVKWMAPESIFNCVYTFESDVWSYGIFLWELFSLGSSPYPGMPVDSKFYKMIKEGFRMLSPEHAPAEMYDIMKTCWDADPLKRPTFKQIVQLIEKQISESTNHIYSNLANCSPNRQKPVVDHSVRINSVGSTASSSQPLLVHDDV
EPHA8, sequence (P29322 28-1005): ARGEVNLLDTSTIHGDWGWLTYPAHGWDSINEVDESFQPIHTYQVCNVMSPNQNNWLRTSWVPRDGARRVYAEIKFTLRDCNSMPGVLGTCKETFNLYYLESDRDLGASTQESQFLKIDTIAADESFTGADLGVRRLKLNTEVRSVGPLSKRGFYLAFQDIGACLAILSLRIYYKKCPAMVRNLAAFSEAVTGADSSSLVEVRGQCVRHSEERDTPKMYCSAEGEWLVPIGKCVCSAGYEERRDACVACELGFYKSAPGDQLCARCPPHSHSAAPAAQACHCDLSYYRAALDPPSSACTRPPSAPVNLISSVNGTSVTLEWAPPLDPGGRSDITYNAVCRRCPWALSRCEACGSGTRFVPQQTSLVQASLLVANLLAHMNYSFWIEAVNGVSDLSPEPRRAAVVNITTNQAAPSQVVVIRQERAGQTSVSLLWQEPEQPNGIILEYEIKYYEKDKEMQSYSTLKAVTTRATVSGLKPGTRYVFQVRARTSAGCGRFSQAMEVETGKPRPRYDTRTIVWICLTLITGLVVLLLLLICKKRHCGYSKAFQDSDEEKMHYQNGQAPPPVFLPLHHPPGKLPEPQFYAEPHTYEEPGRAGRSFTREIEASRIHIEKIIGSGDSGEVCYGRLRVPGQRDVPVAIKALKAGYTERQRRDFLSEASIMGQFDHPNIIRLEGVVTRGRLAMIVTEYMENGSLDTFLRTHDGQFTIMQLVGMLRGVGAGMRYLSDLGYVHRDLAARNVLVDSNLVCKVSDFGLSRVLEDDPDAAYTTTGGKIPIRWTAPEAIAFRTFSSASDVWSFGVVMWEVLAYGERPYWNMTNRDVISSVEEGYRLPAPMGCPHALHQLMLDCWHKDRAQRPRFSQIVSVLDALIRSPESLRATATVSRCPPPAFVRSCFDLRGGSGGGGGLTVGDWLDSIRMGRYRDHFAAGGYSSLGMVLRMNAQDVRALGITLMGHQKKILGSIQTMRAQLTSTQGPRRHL
DDR1, sequence (Q08345 19-913): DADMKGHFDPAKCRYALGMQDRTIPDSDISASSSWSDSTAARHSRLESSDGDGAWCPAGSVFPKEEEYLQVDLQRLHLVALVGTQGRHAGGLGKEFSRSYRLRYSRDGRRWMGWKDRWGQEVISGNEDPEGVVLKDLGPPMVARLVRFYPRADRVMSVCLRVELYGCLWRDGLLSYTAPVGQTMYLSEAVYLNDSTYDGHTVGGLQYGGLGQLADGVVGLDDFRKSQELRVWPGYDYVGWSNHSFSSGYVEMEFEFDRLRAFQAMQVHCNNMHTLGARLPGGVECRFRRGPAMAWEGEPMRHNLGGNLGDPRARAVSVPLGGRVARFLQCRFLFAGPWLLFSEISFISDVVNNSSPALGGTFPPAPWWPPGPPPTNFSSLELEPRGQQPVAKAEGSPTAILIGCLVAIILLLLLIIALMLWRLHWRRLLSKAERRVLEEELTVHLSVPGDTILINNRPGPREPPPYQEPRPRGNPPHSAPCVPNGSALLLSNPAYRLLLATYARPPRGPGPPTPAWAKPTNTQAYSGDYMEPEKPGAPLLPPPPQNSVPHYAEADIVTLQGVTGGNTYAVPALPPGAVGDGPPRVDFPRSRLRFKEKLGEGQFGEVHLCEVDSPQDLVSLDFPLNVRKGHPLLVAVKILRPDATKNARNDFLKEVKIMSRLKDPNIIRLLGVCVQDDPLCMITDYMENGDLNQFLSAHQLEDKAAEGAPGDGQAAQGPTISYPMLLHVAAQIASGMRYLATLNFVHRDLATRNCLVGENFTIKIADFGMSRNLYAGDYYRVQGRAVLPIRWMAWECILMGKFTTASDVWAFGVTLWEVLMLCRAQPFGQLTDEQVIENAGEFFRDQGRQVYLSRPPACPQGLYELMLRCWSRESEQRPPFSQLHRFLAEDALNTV
SRPK3, sequence (Q9UPE1 whole entry): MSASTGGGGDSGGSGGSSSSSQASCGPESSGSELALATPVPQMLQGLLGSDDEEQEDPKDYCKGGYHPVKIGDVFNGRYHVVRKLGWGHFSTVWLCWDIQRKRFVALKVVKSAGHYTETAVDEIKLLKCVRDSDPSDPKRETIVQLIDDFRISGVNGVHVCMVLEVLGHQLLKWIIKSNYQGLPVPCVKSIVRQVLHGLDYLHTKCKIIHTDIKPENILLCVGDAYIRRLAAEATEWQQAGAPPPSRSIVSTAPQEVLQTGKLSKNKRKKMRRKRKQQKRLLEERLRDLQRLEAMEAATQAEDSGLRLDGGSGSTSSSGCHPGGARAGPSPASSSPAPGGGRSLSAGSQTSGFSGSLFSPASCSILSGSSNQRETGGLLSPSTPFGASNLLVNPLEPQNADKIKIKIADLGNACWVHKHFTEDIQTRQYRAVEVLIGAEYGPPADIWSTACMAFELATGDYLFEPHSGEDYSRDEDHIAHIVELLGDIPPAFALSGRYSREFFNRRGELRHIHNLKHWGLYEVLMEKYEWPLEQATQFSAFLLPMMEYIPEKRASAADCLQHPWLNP

O=C1CCC(N2C(=O)c3cccc(NCCCCCCCCNC(=O)N4CC[C@H](NC5=Nc6cc(F)ccc6N(CC(F)F)c6ccc(Cl)cc65)C4)c3C2=O)C(=O)N1 (stereo partly drawn) [BJG-05-039, (3S)-3-((2-Chloro-5-(2,2-difluoroethyl)-8-fluoro-5H-dibenzo[b,e][1,4]diazepin-11-yl)amino)-N-(8-((2-(2,6-dioxopiperidin-3-yl)-1,3-dioxoisoindolin-4-yl)amino)octyl)pyrrolidine-1-carboxamide] was tested. Which “Effect on cell proliferation” value (Hey A8 cells; HEY-A8 cells (PAK2-dependent)) did it give?
Its value is “Neither BJG-05-039 or NVS-PAK1-1 significantly affected cell proliferation”.

And the EC50 (Hey A8 cells; Hey A8 cells (PAK2-dependent), read-out: EC50, anti-proliferative)?
Its EC50 is 36 µM.

What about the EC50 (MCF7 cells; first statement of b311) of the same compound?
The EC50 was 0.003 µM.

What about the EC50 (MCF7 cells; second listing of b311) of the same compound?
Its EC50 is 0.086 µM.

What about the “Effect on cell proliferation” value (OMM1 cells) of the same compound?
Its value is “Neither BJG-05-039 or NVS-PAK1-1 significantly affected cell proliferation”.

And the EC50 (OMM1 cells; OMM-1, read-out: EC50, anti-proliferative)?
The EC50 was 20.8 µM.

What about the remaining binding at 10 µM [1] of the same compound?
The remaining binding at 10 µM was 45%.

And the remaining binding at 10 µM (PRKX)?
The remaining binding at 10 µM was 48%.

What about the remaining binding at 10 µM [2] of the same compound?
The remaining binding at 10 µM was 51%.

And the remaining binding at 10 µM (DDR1)?
Its remaining binding at 10 µM is 52%.

What about the remaining binding at 10 µM [3] of the same compound?
Its remaining binding at 10 µM is 59%.

And the remaining binding at 10 µM (ADCK4)?
The remaining binding at 10 µM was 63%.

And the remaining binding at 10 µM (FAK)?
Its remaining binding at 10 µM is 65%.

What about the remaining binding at 10 µM (NEK5) of the same compound?
The remaining binding at 10 µM was 65%.

And the remaining binding at 10 µM (RIPK1)?
Its remaining binding at 10 µM is 65%.

What about the remaining binding at 10 µM (PAK4) of the same compound?
The remaining binding at 10 µM was 75%.

And the remaining binding at 10 µM (GRK2)?
The remaining binding at 10 µM was 77%.

What about the remaining binding at 10 µM (PFTAIRE2) of the same compound?
Its remaining binding at 10 µM is 78%.

And the remaining binding at 10 µM (LRRK2)?
The remaining binding at 10 µM was 80%.

And the remaining binding at 10 µM (MST2)?
Its remaining binding at 10 µM is 80%.

What about the remaining binding at 10 µM (PRKR) of the same compound?
Its remaining binding at 10 µM is 81%.

And the remaining binding at 10 µM (EPHA8)?
Its remaining binding at 10 µM is 84%.

And the remaining binding at 10 µM (JNK2)?
Its remaining binding at 10 µM is 84%.

What about the remaining binding at 10 µM [4] of the same compound?
The remaining binding at 10 µM was 91%.

What about the remaining binding at 10 µM (KIT(A829P)) of the same compound?
Its remaining binding at 10 µM is 92%.

What about the remaining binding at 10 µM (MYLK2) of the same compound?
Its remaining binding at 10 µM is 93%.

And the remaining binding at 10 µM (SRPK3)?
The remaining binding at 10 µM was 93%.

And the remaining binding at 10 µM (YSK4)?
Its remaining binding at 10 µM is 93%.

What about the remaining binding at 10 µM (LIMK1) of the same compound?
Its remaining binding at 10 µM is 94%.

And the remaining binding at 10 µM (PIK3C2G)?
The remaining binding at 10 µM was 95%.

What about the remaining binding at 10 µM (CSNK2A1) of the same compound?
The remaining binding at 10 µM was 96%.

What about the remaining binding at 10 µM (LRRK2(G2019S)) of the same compound?
Its remaining binding at 10 µM is 96%.

What about the remaining binding at 10 µM [5] of the same compound?
Its remaining binding at 10 µM is 100%.

And the remaining binding at 10 µM (DYRK1A)?
The remaining binding at 10 µM was 100%.

What about the remaining binding at 10 µM (KIT-autoinhibited) of the same compound?
Its remaining binding at 10 µM is 100%.

And the remaining binding at 10 µM (MAP3K3)?
The remaining binding at 10 µM was 100%.

What about the remaining binding at 10 µM (PIK3CA(Q546K)) of the same compound?
Its remaining binding at 10 µM is 100%.

And the remaining binding at 10 µM (YANK1)?
Its remaining binding at 10 µM is 100%.

Reference: US20250312462A1, “PAK1 DEGRADERS AND METHODS OF USE THEREOF” (INSTITUTE FOR CANCER RESEARCH D/B/A THE RESEARCH INSTITUTE …, priority 2022, published 2025)
